This note sets out measurements from patent publication US20260115187A1, “TRICYCLIC SKELETON COMPOUND AND USE THEREOF IN PREPARATION OF ANTITUMOR DRUG” (ZHONGSHAN HOSPITAL, FUDAN UNIVERSITY, priority 2024, published 2026).

Each structure is given as a SMILES string. Where two headings read alike, the source gives them in different places.

Assay [1] deals with MHCC97H KSR2 OE (97H cells overexpressing KSR2). As to the kind of experiment: Cell IC50 assay (CCK8 cell viability), MHCC97H KSR2 OE. Format: cell-based. As to conditions: Homo sapiens. The procedure:
(§1) (1) Cell Preparation: Hepatoma cells (PLC/PRF/5, sourced from the Chinese Academy of Sciences; MHCC97H, sourced from this research institute) in good growth condition are prepared. The cells are trypsinized, diluted, and seeded into 96-well cell culture plates. 1,000-3,000 cells are added per well. The plates are then placed in a cell culture incubator at 37° C. with 5% CO2. Drugs are added after the cells have adhered for 24 h.
(§2) (2) Drug Addition: The drugs are subjected to gradient dilution, typically setting 9 concentrations. Control groups containing no drug medium and medium containing only the drug solvent are also set up. The diluted drugs are added to the cell culture plates seeded the previous day. The plates are incubated for 72 h.
(§3) (3) CCK8 Assay for Cell Viability: CCK8 is mixed with culture medium at a 1:10 ratio. 100 μL of this mixture is added to each well of the cell culture plate. After incubating for 2-4 h, the OD values are measured using a microplate reader.
(§4) (4) Data Analysis: Based on the corresponding OD values, the data are compiled, IC50 curves are plotted, and the IC50 values are obtained.
(§5) (5) IC50 Verification: The theoretical IC50 value is identified from the IC50 curve. Drug concentrations at ½ times, 1 time, and 2 times this theoretical value are used for verification.

Assay [2] relates to PLC/PRF/5 KSR2 OE (PLC cells overexpressing KSR2). As to the kind of experiment: Cell IC50 assay (CCK8 cell viability), PLC/PRF/5 KSR2 OE. The following applies: Homo sapiens, read-out: IC50 value of cell viability, PLC/PRF/5 KSR2 OE (PLC cells overexpressing KSR2). Format: cell-based. The procedure:
as §1, §2, §3, §4, §5

The mark [3] stands for this setting: hepatoma cells, 72 h incubation, CCK8, read-out: IC50 value of cell viability, MHCC97H KSR2 OE (97H cells overexpressing KSR2).
[4] abbreviates: PLC-PRF-5, hepatoma cells, 72 h incubation, CCK8.
[5] abbreviates: read-out: IC50 value of cell viability, MHCC97H KSR2 OE (97H cells overexpressing KSR2).

Regarding `Cn1nc(C(=O)NCCCN2CCC(N3CCNCC3)CC2)c2c1-c1ccccc1SC2` [Compound 41], the IC50 in assay [1] (setting [3]) was 7 µM; in assay [2] (setting [4]), 8 µM.
In the same order, the values of `Cn1nc(C(=O)NCCCN2CCC(N3CCN(Cc4ccccc4)CC3)CC2)c2c1-c1ccccc1SC2` [Compound 58] are 2 µM and 2 µM.
The corresponding values for `O=C(NCCCN1CCN(C2CCCCC2)CC1)c1nn(CC2CC2)c2c1CSc1ccccc1-2` [Compound 15] are 39 µM and 10 µM.
The corresponding values for `CN1CCN(C2CCN(CCCNC(=O)c3nn(CC(C)(C)O)c4c3CSc3ccccc3-4)CC2)CC1` [Compound 90] are 34 µM and 21 µM.
Turning to `Cn1nc(C(=O)NCCCN2CCN(Cc3ccccc3)CC2)c2c1-c1ccccc1SC2` [Compound 10], the IC50 came out at 38 µM in assay [1] (setting [5]) and 16 µM in assay [2] (PLC-PRF-5, 72 h).
Regarding `CN(C)C1CCN(CCCNC(=O)c2nn(C)c3c2CSc2ccccc2-3)CC1` [Compound 45], the IC50 in assay [1] (setting [3]) came out at 6 µM; in assay [2] (setting [4]), 5 µM.
The corresponding values for `CN1CCN(C2CCN(CCCNC(=O)c3c4c(nn3C3COC3)-c3ccccc3SC4)CC2)CC1` [Compound 89] are 32 µM and 15 µM.
In the same order, the values of `CCN1CCN(C2CCN(CCCNC(=O)c3n[nH]c4c3COc3cc(Cl)c(C#N)cc3-4)CC2)CC1` [Compound 129] are 4 µM and 5 µM.
The corresponding values for `Cn1nc(C(=O)NCCCN2CCC(N3CCCC3)CC2)c2c1-c1ccccc1SC2` [Compound 38] are 4 µM and 3 µM.
As to `CN1CCN(C2CCN(CCCNC(=O)c3c4c(nn3C)-c3cc(Br)c(Cl)cc3OC4)CC2)CC1` [Compound 102], the IC50 in assay [1] (setting [3]) and in assay [2] (setting [4]) was 1 µM throughout.
With `Cn1nc(C(=O)NCCCN2CCC(N)CC2)c2c1-c1ccccc1SC2` [Compound 55], the IC50 in assay [1] (setting [3]) turned out to be 5 µM; in assay [2] (setting [4]), 4 µM.
The corresponding values for `COCCN1CCN(C2CCN(CCCNC(=O)c3nn(C)c4c3CSc3ccccc3-4)CC2)CC1` [Compound 66] are 21 µM and 19 µM.
The corresponding values for `CN1CCN(C2CCN(C3CC(CNC(=O)c4nn(C)c5c4CSc4ccccc4-5)C3)CC2)CC1` (centres unmarked) [Compound 78] are 6 µM and 12 µM.
Regarding `Cn1nc(C(=O)NCCCN2CCN(C3CCCCC3)CC2)c2c1-c1ccccc1OC2` [Compound 16], the IC50 in assay [1] (setting [3]) stood at 46 µM; in assay [2] (setting [4]), 26 µM.
For the compound `CN1CCN(C2CCN(CCCNC(=O)c3nn(C)c4c3COc3ccc(F)cc3-4)CC2)CC1` [Compound 76], the IC50 is 22 µM in assay [1] (setting [3]) and 18 µM in assay [2] (setting [4]).
Take `Cn1nc(C(=O)NCCCN2CCN(C3CCCCC3)CC2)c2c1-c1ccccc1SC2` [Compound 8]: the IC50 was 62 µM in assay [1] (setting [5]) and 61 µM in assay [2] (PLC-PRF-5, 72 h).
As to `Cn1nc(C(=O)NCCCN2CCC(N3CCCCC3)C(F)(F)C2)c2c1-c1ccccc1SC2` (centres unmarked) [Compound 36], the IC50 in assay [1] (setting [3]) came to 71 µM; in assay [2] (setting [4]) it was 62 µM.
As to `Cn1nc(C(=O)NCCCN2CCN(C3CCCCC3)CC2)c2c1-c1ccccc1CC2` [Compound 17], the IC50 in assay [1] (setting [3]) amounted to 57 µM; in assay [2] (setting [4]), 21 µM.
The corresponding values for `CN1CCN(C2CCN(CCCNC(=O)c3c4c(nn3C)-c3ccc(-c5cn[nH]c5)cc3OC4)CC2)CC1` [Compound 123] are 85 µM and 114 µM.
The corresponding values for `CN1CCN(C2CCN(CCCNC(=O)c3nn(C4COC4)c4c3CSc3ccccc3-4)CC2)CC1` [Compound 88] are 41 µM and 22 µM.
In the same order, the values of `Cn1nc(C(=O)NCCCN2CCC(N3CCN(CCC#N)CC3)CC2)c2c1-c1ccccc1SC2` [Compound 79] are 40 µM and 57 µM.
On to `Cn1nc(C(=O)NCCCN2CCN(c3ccccc3Cl)CC2)c2c1-c1ccccc1SC2` [Compound 22], for which the IC50 in assay [1] (setting [3]) came to 30 µM; in assay [2] (setting [4]), 15 µM.
In the same order, the values of `CN1CCN(C2CN(C3CC(CNC(=O)c4nn(C)c5c4COc4cc(Cl)ccc4-5)C3)C2)CC1` (centres unmarked) [Compound 99] are 17 µM and 9 µM.
For `Cn1nc(C(=O)NCC2CC(N3CCC(N4CCCC4)CC3)C2)c2c1-c1ccccc1SC2` (centres unmarked) [Compound 51], the IC50 in assay [1] (setting [3]) and in assay [2] (setting [4]) was 1 µM in each case.
With `CN1CCN(C2CCN(CCCNC(=O)c3n[nH]c4c3CSc3ccccc3-4)CC2)CC1` [Compound 83], the results for the IC50 in assay [1] (setting [3]) and in assay [2] (setting [4]) were 10 µM and 18 µM, respectively.
The corresponding values for `CN1CCN(C2CCN(CCCNC(=O)c3n[nH]c4c3COc3cc(Cl)ccc3-4)CC2)CC1` [Compound 125] are 1 µM and 1 µM.
On to `Cn1nc(C(=O)NCC(F)(F)CN2CCC(N3CCC(F)(F)CC3)CC2)c2c1-c1ccccc1SC2` [Compound 37], for which the IC50 in assay [1] (setting [3]) was 28 µM; in assay [2] (setting [4]), 19 µM.
The corresponding values for `CCN1CCN(C2CCN(CCCNC(=O)c3nn(C)c4c3COc3cc(-c5cnn(C)c5)ccc3-4)CC2)CC1` [Compound 133] are 1 µM and 2 µM.
In the same order, the values of `CN1CCN(C2CCN(CCCNC(=O)c3c4c(nn3C)-c3ccc(-n5nccn5)cc3OC4)CC2)CC1` [Compound 124] are 5 µM and 2 µM.
In the same order, the values of `CN1CCN(C2CN(CCCNC(=O)c3c4c(nn3C)-c3ccc(OC(F)(F)F)cc3OC4)C2)CC1` [Compound 108] are 8 µM and 5 µM.
Take `CC(C)N1CCN(C2CN(CCCNC(=O)c3nn(C)c4c3COc3cc(Cl)ccc3-4)C2)CC1` [Compound 103]: the IC50 in assay [1] (setting [3]) and in assay [2] (setting [4]) was 5 µM throughout.
For the compound `Cn1nc(C(=O)NCCCN2CCN(C3CCOCC3)CC2)c2c1-c1ccccc1SC2` [Compound 2], the IC50 in assay [1] (setting [5]) is above 100 µM; in assay [2] (PLC-PRF-5, 72 h), 84 µM.
For the compound `CN1CCN(C2CCN(CCCNC(=O)c3nn(C)c4c3CSc3cc(Cl)ccc3-4)CC2)CC1` [Compound 96], the IC50 in assay [1] (setting [3]) was 1 µM; in assay [2] (setting [4]), 4 µM.
In the same order, the values of `CN(Cc1ccccc1)C1CCN(CCCNC(=O)c2nn(C)c3c2CSc2ccccc2-3)CC1` [Compound 65] are 14 µM and 8 µM.
In the same order, the values of `CN1CCN(C2CN(C3CC(CNC(=O)c4nn(C)c5c4CSc4cc(Cl)ccc4-5)C3)C2)CC1` (centres unmarked) [Compound 110] are 9 µM and 4 µM.
The corresponding values for `Cn1nc(C(=O)NCCCN2CCC(O)(c3ccccc3)CC2)c2c1-c1ccccc1SC2` [Compound 32] are 16 µM and 17 µM.
Regarding `Cn1nc(C(=O)NCCCN2CCC(N3CCN(CC4COC4)CC3)CC2)c2c1-c1ccccc1SC2` [Compound 70], the results for the IC50 in assay [1] (setting [3]) and in assay [2] (setting [4]) were 9 µM and 39 µM, respectively.
As to `CN1CCN(C2CCN(CCCNC(=O)c3nn(C)c4c3CSc3ccccc3-4)CC2)CC1` [Compound 30], the values for the IC50 in assay [1] (setting [3]) and in assay [2] (setting [4]) were 6 µM and 9 µM, respectively.
The corresponding values for `Cn1nc(C(=O)NCCCN2CCC(N3CCN(CC4CC4)CC3)CC2)c2c1-c1ccccc1SC2` [Compound 64] are 6 µM and 5 µM.
Regarding `CCn1nc(C(=O)NCCCN2CCN(C3CCCCC3)CC2)c2c1-c1ccccc1SC2` [Compound 14], the IC50 in assay [1] (setting [3]) is 14 µM; in assay [2] (setting [4]), 39 µM.
